Laboratory results taken from ChEMBL document CHEMBL4304804, “Synthesis and biological evaluation of calycanthaceous alkaloid analogs” (Bioorg Med Chem, 2019).
Converted amounts (≈) assume the structure as drawn. The source made the active and inactive calls. The calls are words filed in the database; no cut-off is given here.

How the values were obtained:
[1] = test system: Verticillium dahliae; experiment: Antifungal activity against Verticillium dahliae assessed as reduction in fungal cell growth incubated for 48 hrs by serial dilution method; assay type: functional
[2] = test system: Fusarium oxysporum f. sp. vasinfectum; experiment: Antifungal activity against Fusarium oxysporum sp. vasinfectum assessed as reduction in fungal cell growth incubated for 48 hrs by serial dilution method; assay type: functional
[3] = test system: Cytospora; experiment: Antifungal activity against Cytospora juglandis assessed as reduction in fungal cell growth incubated for 48 hrs by serial dilution method; assay type: functional
[4] = test system: Aspergillus flavus; experiment: Antifungal activity against Aspergillus flavus assessed as reduction in fungal cell growth incubated for 48 hrs by serial dilution method; assay type: functional
[5] = test system: Penicillium citrinum; experiment: Antifungal activity against Penicillium citrinum assessed as reduction in fungal cell growth incubated for 48 hrs by serial dilution method; assay type: functional
[6] = test system: Fusarium oxysporum; experiment: Antifungal activity against Fusarium oxysporum assessed as reduction in fungal cell growth incubated for 48 hrs by serial dilution method; assay type: functional
[7] = test system: Colletotrichum orbiculare; experiment: Antifungal activity against Colletotrichum orbiculare assessed as reduction in fungal cell growth incubated for 48 hrs by serial dilution method; assay type: functional
[8] = test system: Aspergillus niger; experiment: Antifungal activity against Aspergillus niger assessed as reduction in fungal cell growth incubated for 48 hrs by serial dilution method; assay type: functional
[9] = test system: Curvularia lunata; experiment: Antifungal activity against Curvularia lunata assessed as reduction in fungal cell growth incubated for 48 hrs by serial dilution method; assay type: functional
[10] = test system: Escherichia coli; experiment: Antibacterial activity against Escherichia coli assessed as reduction in bacterial cell growth incubated for 24 hrs by filter paper assay; assay type: functional
[11] = test system: Pseudomonas aeruginosa; experiment: Antibacterial activity against Pseudomonas aeruginosa assessed as reduction in bacterial cell growth incubated for 24 hrs by filter paper assay; assay type: functional
[12] = test system: Ralstonia solanacearum; experiment: Antibacterial activity against Ralstonia solanacearum assessed as reduction in bacterial cell growth incubated for 24 hrs by filter paper assay; assay type: functional
[13] = test system: Bacillus cereus; experiment: Antibacterial activity against Bacillus cereus assessed as reduction in bacterial cell growth incubated for 24 hrs by filter paper assay; assay type: functional
[14] = test system: Staphylococcus aureus; experiment: Antibacterial activity against Staphylococcus aureus assessed as reduction in bacterial cell growth incubated for 24 hrs by filter paper assay; assay type: functional
[15] = test system: Candida; experiment: Antifungal activity against […] assessed as reduction in fungal cell growth incubated for 48 hrs by serial dilution method; assay type: functional
[16] = test system: Cryptococcus neoformans; experiment: Antifungal activity against Cryptococcus neoformans assessed as reduction in fungal cell growth incubated for 48 hrs by serial dilution method; assay type: functional
[17] = test system: Candida tropicalis; experiment: Antifungal activity against Candida tropicalis assessed as reduction in fungal cell growth incubated for 48 hrs by serial dilution method; assay type: functional
[18] = test system: Curvularia lunata; experiment: Antifungal activity against Curvularia lunata assessed as reduction in fungal cell growth at 62.5 ug/ml incubated for 48 hrs by serial dilution method relative to control; assay type: functional
[19] = test system: Curvularia lunata; experiment: Antifungal activity against Curvularia lunata assessed as reduction in fungal cell growth at 125 ug/ml incubated for 48 hrs by serial dilution method relative to control; assay type: functional
[20] = test system: Curvularia lunata; experiment: Antifungal activity against Curvularia lunata assessed as reduction in fungal cell growth at 250 ug/ml incubated for 48 hrs by serial dilution method relative to control; assay type: functional
[21] = test system: Curvularia lunata; experiment: Antifungal activity against Curvularia lunata assessed as reduction in fungal spore germination at 125 ug/ml relative to control; assay type: functional
[22] = test system: Curvularia lunata; experiment: Antifungal activity against Curvularia lunata assessed as reduction in fungal spore germination at 250 ug/ml relative to control; assay type: functional
[23] = molecular target: Acetylcholinesterase (Electrophorus electricus, UniProt O42275); experiment: Inhibition of electric eel AChE by Ellman's colorimetry
Chain of Acetylcholinesterase (O42275 whole entry): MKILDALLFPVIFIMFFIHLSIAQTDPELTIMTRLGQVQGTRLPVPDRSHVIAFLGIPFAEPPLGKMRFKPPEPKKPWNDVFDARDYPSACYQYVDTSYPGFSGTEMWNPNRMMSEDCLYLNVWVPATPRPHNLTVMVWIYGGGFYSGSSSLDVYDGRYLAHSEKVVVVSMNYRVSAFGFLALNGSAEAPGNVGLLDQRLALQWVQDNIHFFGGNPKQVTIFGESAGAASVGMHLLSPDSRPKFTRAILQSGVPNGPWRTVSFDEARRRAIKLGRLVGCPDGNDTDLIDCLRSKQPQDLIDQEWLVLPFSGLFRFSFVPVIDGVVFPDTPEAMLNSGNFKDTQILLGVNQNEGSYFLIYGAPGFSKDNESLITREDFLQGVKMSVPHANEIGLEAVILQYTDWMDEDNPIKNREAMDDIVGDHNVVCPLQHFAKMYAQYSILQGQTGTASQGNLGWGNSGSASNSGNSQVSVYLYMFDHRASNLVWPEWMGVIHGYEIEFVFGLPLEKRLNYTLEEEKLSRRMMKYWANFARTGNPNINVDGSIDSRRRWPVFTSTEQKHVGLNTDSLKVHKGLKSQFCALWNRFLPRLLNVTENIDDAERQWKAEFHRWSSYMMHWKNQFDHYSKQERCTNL

[24] = test system: Ralstonia solanacearum; experiment: Antibacterial activity against Ralstonia solanacearum assessed as reduction in bacterial cell growth at 500 ug/ml incubated for 24 hrs by filter paper assay relative to control; assay type: functional

SMILES	MIC [1]	MIC [2]	MIC [3]	MIC [4]	MIC [5]	MIC [6]	MIC [7]	MIC [8]	MIC [9]	MIC [10]	MIC [11]	MIC [12]	MIC [13]	MIC [14]	MIC [15]	MIC [16]	MIC [17]	IC50 [23]	further results
CCCCCCC(=O)N1CCCC2(O)c3ccccc3N(C)C12 (configuration not stated)	62.5 µg/mL (≈ 198 µM)	250 µg/mL (≈ 790 µM)	125 µg/mL (≈ 395 µM)	inactive	inactive	250 µg/mL (≈ 790 µM)	250 µg/mL (≈ 790 µM)	250 µg/mL (≈ 790 µM)	62.5 µg/mL (≈ 198 µM)	125 µg/mL (≈ 395 µM)	250 µg/mL (≈ 790 µM)	62.5 µg/mL (≈ 198 µM)	250 µg/mL (≈ 790 µM)	62.5 µg/mL (≈ 198 µM)	inactive	125 µg/mL (≈ 395 µM)	250 µg/mL (≈ 790 µM)	4200 nM	inhibition at 62.5 µg/mL [18]: 15.5%; inhibition at 125 µg/mL [19]: 31.3%; inhibition at 250 µg/mL [20]: 77.7%; inhibition at 125 µg/mL [21]: 76.2%; inhibition at 250 µg/mL [22]: 43.7%
CCCCCCCC(=O)N1CCCC2(O)c3ccccc3N(C)C12 (configuration not stated)	62.5 µg/mL (≈ 189 µM)	250 µg/mL (≈ 756 µM)	125 µg/mL (≈ 378 µM)	125 µg/mL (≈ 378 µM)	inactive	inactive	250 µg/mL (≈ 756 µM)	250 µg/mL (≈ 756 µM)	125 µg/mL (≈ 378 µM)	62.5 µg/mL (≈ 189 µM)	250 µg/mL (≈ 756 µM)	31.2 µg/mL (≈ 94.6 µM)	250 µg/mL (≈ 756 µM)	62.5 µg/mL (≈ 189 µM)	inactive	125 µg/mL (≈ 378 µM)	inactive	363 nM	inhibition at 500 µg/mL [24]: 100%
